Results from US20100113406A1, “USE OF GLUCOCORTICOIDS FOR TREATMENT OF CONGESTIVE HEART FAILURE” (priority 2007, published 2010).
Entries after “also recorded” stand apart in the source; their conditions may differ.

What was measured:
[1] = tested on: spontaneous hypertensive heart failure (SHHF) rats; experiment: Left ventricular collagen by Picro Sirius Red staining in SHHF rats; assay type: in vivo, rat; conditions: 6 or 60 micrograms/day IPC or IV, 4 weeks, FIG. 12
Procedure: (§1) Forty to forty-two week old male lean spontaneous hypertensive heart failure (SHHF) rats (originally obtained from Charles River, Boston, USA) were used. Animals were housed at the animal facilities of the University of Maastricht with a 12-hour light/dark cycle and had free access to standard rat chow and tap-water. Experiments were performed according to institutional guidelines and conformed to the Guide for the Care and Use of Laboratory Animals published by the US National Institutes of Health (NIH Publication No. 85-23, revised 1996).
(§2) Animals were randomly assigned to treatment groups (n=9 per group). Total treatment time was 4 weeks for all animals. […]
Collagen volume fraction of each section was determined using a computer image analyzing system (Leica Q-Win). Interstitial collagen density of heart sections was evaluated in the left ventricle (LV) subepicardial myocardium regions. Ten fields from each region (magnification ×20) were randomly selected for analyses and the area stained was calculated as percentage of the total area within a field.
Perivascular collagen was expressed as ratio of the area of the collagen surrounding the vessel divided to the area of the coronary arteries media in order to correct for differences in vessel size (magnification ×20 or ×40). We calculated an average value for interstitial and perivascular fibrosis or each animal. […]

[2] = tested on: spontaneous hypertensive heart failure (SHHF) rats; experiment: Left ventricular pressures, contractility, relaxation, arterial pressure and heart rate in SHHF rat model of CHF; assay type: in vivo
Procedure: as §1
The rats underwent a surgical procedure to install pericardial and intravenous catheters and minipumps according to the procedure of Example 1.
Animals were randomly assigned to treatment groups (n=9 per group). Total treatment time was 4 weeks for all animals. The groups were as follows: • (1) corticosterone high dose IPC (60 micrograms/day) • (2) corticosterone low dose IPC (6 micrograms/day) • (3) corticosterone high dose IV (60 micrograms/day) • (4) corticosterone low dose IV (6 micrograms/day) • (5) vehicle
Where IPC—intrapericardial dosing, and IV=intravenous dosing.
During treatment, Group 5 (vehicle) rats were continuously infused with vehicle (40% polyethylene glycol in water; 60 μl/day) via both catheters. Experimental groups obtained continuous infusions as follows: • Group (1)—a high dose (60 ug/day) of corticosterone hemisuccinate intrapericardially and vehicle intravenously; • Group (2)—a low dose (6 ug/day) of corticosterone hemisuccinate intrapericardially and vehicle intravenously; • Group (3)—a high dose (60 ug/day) of corticosterone hemisuccinate intravenously and vehicle intrapericardially; and • Group (4)—a low dose (6 ug/day) of corticosterone hemisuccinate intravenously and vehicle intrapericardially. • Corticosterone hemisuccinate was purchased from Sigma (St Louis, Mo.)
Left ventricular pressures, contractility and relaxation were evaluated at the end of the study as described in B J Janssen et al., “Effects of anesthetics on systemic hemodynamics in mice.” Am J Physiol Heart Circ Physiol 287:H1618-1624 (2004). For this purpose rats were anaesthetized with pentobarbital (50 mg/kg i.p., Sigma). A high-fidelity catheter tip micromanometer (Mikro-tip 1.4F; SPR-671, Millar Instruments, Houston, Tex., USA) was inserted into the left ventricular cavity through the right carotid artery. Before the tip was inserted into the left ventricle, mean arterial pressures and heart rates were briefly recorded in the carotid artery. Left ventricular pressure was measured and sampled at a rate of 2 kHz under an I.V. ramp infusion of dobutamine up to 5 ng/gBW/min (Sigma) using a microinjection pump (model 200 Series, KD Scientific, Boston, Mass., USA). Maximal positive (+dp/dt/p) and negative (−dp/dt/p) pressure development were determined. At the end of the experiment blood and organs were harvested, weighed and rapidly processed and frozen for future analyses.

[3] = Pharmacokinetic study in normal Wistar rats (IPC vs IV infusion, corticosterone levels by HPLC); assay type: in vivo, Wistar rat; conditions: local (intrapericardial) administration versus systemic (IV) administration of the same amount of drug; 4 weeks infusion; FIG. 2
Procedure: as §1, with “Normal Wistar” for “Forty to forty-two week old male lean spontaneous hypertensive heart failure (SHHF)”, “rats” for “rats (originally obtained from Charles River, Boston, USA)”, “used for this Example.” for “used.”
The rats underwent a surgical procedure to install pericardial and intravenous catheters and minipumps. Construction of the pericardial catheters and the procedure to install the catheter into the pericardial space were conducted as described by Hermans, which has been discussed above.
Briefly, the pericardial catheters consisted of silicone tubing (internal diameter: 0.51 mm; external diameter 0.94 mm, Degania Silicone, Degania Bet, Israel), which, by assembling its endings with a polyolefin shrinking sleeve (Farnell Compounds, Maarssen, the Netherlands), was shaped as a loop (length appr. 2 cm, width appr. 1 cm). Silicone glue was applied in the middle of the loop, to create two separate chambers (one used for fluid injection, the second closed, i.e. connected to a closed ending). The fluid infusion chamber was provided with holes by use of a 25-gauge perforator. […]

[4] = tested on: spontaneous hypertensive heart failure (SHHF) rats; experiment: Transthoracic echocardiography in SHHF rats; assay type: in vivo, rat; conditions: treatment end versus treatment start, FIG. 4
Procedure: as §1, §2
At the start and end of the treatment, transthoracic echocardiography was performed under isoflurane anesthesia in part of the rats (5-7 per group) using the SONOS 5500 echocardiographic system equipped with a 15-MHz linear-array transducer (Philips Medical Systems Corp., Netherlands). […] The 2-dimensional parasternal long- and short-axis view of the left ventricle and the parasternal short axis M-mode tracings were recorded.
Measurements and calculations performed are the following: percent LV fractional shortening (FS) was calculated as follows: […], where LVIDd and LVIDs are end-diastolic and end-systolic left ventricle internal dimensions, respectively. […]

[5] = tested on: collagens I and III and BNP mRNA; experiment: Left ventricular gene expression levels of collagens I and III and BNP (real-time PCR) in SHHF rats; assay type: in vivo; conditions: SHHF rat left ventricle, 4 weeks treatment; FIG. 13
Procedure: Left ventricular gene expression levels of collagens I and III and BNP were determined as follows. mRNA expression analyses were performed as follows:
Heart samples (i.e. basal side of the hearts) were shock frozen in liquid nitrogen for RNA. Total RNA from the LV was isolated using the Ultraspec II kit (Bioteckx), according to the instructions of the manufacturer. After integrity checking and determining RNA concentrations with the nanodrop procedure, the RNA concentrations were adjusted to 100 ng/μl For first strand cDNA synthesis, 100 ng heat denatured RNA and 200 pmol random hexamer primers (Pharmacia, Uppsala Sweden) were transferred to a Ready-To-Go first strand bead (Pharmacia, Uppsala Sweden) tube and the volume adjusted to 33 μl.
The reaction (1 hour at 37° C.) was stopped by heat inactivating (2 minutes at 94° C.) the transcriptase and samples were cooled to 4° C. For conducting the real-time PCR, […] of the cDNA templates (100× diluted) were added to SYBR green master mix (Eurogentec) and primers (15 μM final concentration each) yielding a total volume of […], following the instructions of the Eurogentec.
PCR-primers (Sigma Genosys) were selected based on published primers/cDNA sequences and had the following sequences (5′→3′): […]
yielding products with fragment lengths of 253, 147 and 86 base pairs for PGK 1 (phosphoglycerate kinase 1), BNP (brain natriuretic peptide) and collagens I and -III respectively.
Samples were denatured and incubated for 40 cycles at 60° C. (120 seconds; annealing and synthesis) and 95° C. (15 seconds), during which fluorescence was continuously monitored (Biorad thermocycler).
Based on the linear part of the curves, initial gene concentrations were derived by comparing signals with standard curves. Validity of the procedure was checked by constructing melting curves for every sample.
Calculated gene expression levels were standardized for the house keeping gene PGK1 and were normalized versus RNA obtained from untreated control animals. Data are therefore expressed as arbitrary units (means±SEM).

corticosterone concentration in rat heart tissue [3]: higher concentration
SMILES: C[C@]12C[C@H](O)[C@H]3[C@@H](CCC4=CC(=O)CC[C@@]43C)[C@@H]1CC[C@@H]2C(=O)CO [corticosterone]
left ventricular epicardial collagen area [1]: improved; also recorded: positively affects | cardiac filling rate ([2]; 6 or 60 micrograms/day IPC or IV, 4 weeks): improved | left ventricular end diastolic pressure ([2]; 6 or 60 micrograms/day IPC or IV, 4 weeks, FIG. 8): improved; also recorded: positively affects | left ventricular contractility ([2]; 6 or 60 micrograms/day IPC or IV, 4 weeks, FIG. 10): improved; also recorded: positively affects | left ventricular relaxation ([2]; 6 or 60 micrograms/day IPC or IV, 4 weeks, FIG. 11): positively affects | heart rate ([2]; right carotid artery, 4 weeks treatment, FIG. 5): no differences between treatments; also recorded: not affecting | mean arterial pressure (MAP) / blood pressure ([2]; right carotid artery, 4 weeks treatment, FIG. 6): no differences between treatments; also recorded: not affecting | echocardiographic examinations (left ventricular dimensions or performance parameters) [4]: no differences between treatments | mRNA expression of B-type natriuretic peptide (BNP) [5]: reduces | mRNA expression of Type I collagen [5]: reduces | mRNA expression of Type III collagen [5]: reduces
